In the supplement of paper PMC10307832:

compound: C[C@@H](Oc1cc(-c2cnn(C3CCNCC3)c2)cnc1N)c1c(Cl)ccc(F)c1Cl [Crizotinib] + Nc1nc2[nH]cc(CCc3ccc(C(=O)N[C@@H](CCC(=O)O)C(=O)O)cc3)c2c(=O)[nH]1 [Pemetrexed] (partner 0.2 µM); experiment: relative viability (nuclei count vs DMSO), 5 days (fraction); higher = more cells survive; details: first compound 1 µM
How it was run: (§1)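 Nuclei were stained with Hoechst during a one-step fixation (final 0.05% Triton X-100, 1% formaldehyde, 1 ug/ml Hoechst) carried out 5 days after dosing, then counted on 4× images. The cells, lung cancer lines in 1536-well plates, had been dosed by pin tool the day after seeding with one drug alone or a fixed anchor-drug dose plus five library-drug doses (not always all listed) in √10 steps. Relative viability is the nuclei count in treated wells divided by that in vehicle wells, and each value is the median of duplicate plates.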

Cell Line | relative viability
NCI-H2085 | 0.904
NCI-H2087 | 0.723
NCI-H2126 | 0.724
NCI-H2170 | 0.278
NCI-H2228 | 0.317
NCI-H2342 | 0.744
NCI-H2347 | 0.416
NCI-H3122 | 0.192
PC-3 [JPC-3] | 1.05
PC-14 | 0.132
RERF-LC-KJ | 0.517
SK-LU-1 | 0.922
SK-MES-1 | 0.924
SW 900 | 0.466
SW 1573 | 0.908
UMC-11 | 0.841

compound: O=C(c1cc(Cc2n[nH]c(=O)c3ccccc23)ccc1F)N1CCN(C(=O)C2CC2)CC1 [Olaparib] + COc1cccc2cc(-c3nc([C@H]4CC[C@H](C(=O)O)CC4)n4ncnc(N)c34)[nH]c12 [OSI-027] (partner 0.5 µM); experiment: as above; details: first compound 0.08 µM
How it was run: as §1

Cell Line | relative viability
NCI-H2009 | 0.739
NCI-H2023 | 0.445
NCI-H2085 | 1.15
NCI-H2087 | 0.794
NCI-H2126 | 0.766
NCI-H2170 | 0.809
NCI-H2228 | 0.644
NCI-H2342 | 0.565
NCI-H2347 | 0.472
NCI-H2405 | 0.717
NCI-H3122 | 1.14
PC-3 [JPC-3] | 0.825
PC-14 | 1.27
RERF-LC-KJ | 0.66
SK-LU-1 | 0.345
SK-MES-1 | 0.674
SW 900 | 0.693
SW 1573 | 0.738
UMC-11 | 0.474

same assay, conditions: first compound 0.253 µM

Cell Line | relative viability
NCI-H2009 | 0.601
NCI-H2023 | 0.356
NCI-H2085 | 0.687
NCI-H2087 | 0.489
NCI-H2126 | 0.669
NCI-H2170 | 0.685
NCI-H2228 | 0.386
NCI-H2342 | 0.54
NCI-H2347 | 0.371
NCI-H2405 | 0.625
NCI-H3122 | 0.954
PC-3 [JPC-3] | 0.711
PC-14 | 0.795
RERF-LC-KJ | 0.592
SK-LU-1 | 0.331
SK-MES-1 | 0.553
SW 900 | 0.561
SW 1573 | 0.675
UMC-11 | 0.392

same assay, conditions: first compound 2.53 µM

Cell Line | relative viability
NCI-H2009 | 0.645
NCI-H2023 | 0.406
NCI-H2085 | 0.698
NCI-H2087 | 0.501
NCI-H2126 | 0.794
NCI-H2170 | 0.679
NCI-H2228 | 0.598
NCI-H2342 | 0.55
NCI-H2347 | 0.344
NCI-H2405 | 0.636
NCI-H3122 | 1.01
PC-3 [JPC-3] | 0.824
PC-14 | 0.805
RERF-LC-KJ | 0.598
SK-LU-1 | 0.382
SK-MES-1 | 0.577
SW 900 | 0.565
SW 1573 | 0.471
UMC-11 | 0.481

same assay, conditions: first compound 8 µM

Cell Line | relative viability
NCI-H2009 | 0.458
NCI-H2023 | 0.276
NCI-H2085 | 0.751
NCI-H2087 | 0.49
NCI-H2126 | 0.639
NCI-H2170 | 0.694
NCI-H2228 | 0.509
NCI-H2342 | 0.564
NCI-H2347 | 0.37
NCI-H2405 | 0.583
NCI-H3122 | 0.814
PC-3 [JPC-3] | 0.747
PC-14 | 0.471
RERF-LC-KJ | 0.614
SK-LU-1 | 0.24
SK-MES-1 | 0.459
SW 900 | 0.458
SW 1573 | 0.517
UMC-11 | 0.334

compound: O=C(c1cc(Cc2n[nH]c(=O)c3ccccc23)ccc1F)N1CCN(C(=O)C2CC2)CC1 [Olaparib] + O=C(CCCCCCC(=O)Nc1ccccc1)NO [Vorinostat] (partner 1 µM); experiment: as above; details: first compound 0.08 µM
How it was run: as §1

Cell Line | relative viability
NCI-H2009 | 0.836
NCI-H2023 | 0.734
NCI-H2085 | 0.844
NCI-H2087 | 0.834
NCI-H2126 | 0.803
NCI-H2170 | 0.811
NCI-H2228 | 0.587
NCI-H2342 | 0.771
NCI-H2347 | 0.577
NCI-H2405 | 1.28
NCI-H3122 | 1.17
PC-3 [JPC-3] | 0.923
PC-14 | 0.889
RERF-LC-KJ | 0.79
SK-LU-1 | 0.847
SK-MES-1 | 1.04
SW 900 | 0.462
SW 1573 | 1.08
UMC-11 | 0.392

same assay, conditions: first compound 0.253 µM

Cell Line | relative viability
NCI-H2009 | 0.666
NCI-H2023 | 0.531
NCI-H2085 | 0.703
NCI-H2087 | 0.761
NCI-H2126 | 0.773
NCI-H2170 | 0.754
NCI-H2228 | 0.541
NCI-H2342 | 0.699
NCI-H2347 | 0.568
NCI-H2405 | 0.957
NCI-H3122 | 0.932
PC-14 | 0.579
RERF-LC-KJ | 0.644
SK-LU-1 | 0.705
SK-MES-1 | 0.985
SW 900 | 0.446
SW 1573 | 0.693
UMC-11 | 0.324

same assay, conditions: first compound 2.53 µM

Cell Line | relative viability
NCI-H2009 | 0.674
NCI-H2023 | 0.507
NCI-H2085 | 0.749
NCI-H2087 | 0.658
NCI-H2126 | 0.819
NCI-H2170 | 0.748
NCI-H2228 | 0.742
NCI-H2342 | 0.66
NCI-H2347 | 0.588
NCI-H2405 | 0.997
NCI-H3122 | 0.986
PC-3 [JPC-3] | 0.943
PC-14 | 0.709
RERF-LC-KJ | 0.748
SK-LU-1 | 0.726
SK-MES-1 | 1.06
SW 900 | 0.443
SW 1573 | 0.711
UMC-11 | 0.365

same assay, conditions: first compound 8 µM

Cell Line | relative viability
NCI-H2009 | 0.645
NCI-H2023 | 0.315
NCI-H2085 | 0.616
NCI-H2087 | 0.546
NCI-H2126 | 0.777
NCI-H2170 | 0.748
NCI-H2228 | 0.449
NCI-H2342 | 0.653
NCI-H2347 | 0.398
NCI-H2405 | 0.926
NCI-H3122 | 0.789
PC-3 [JPC-3] | 0.942
PC-14 | 0.34
RERF-LC-KJ | 0.633
SK-LU-1 | 0.545
SK-MES-1 | 0.914
SW 900 | 0.515
SW 1573 | 0.489
UMC-11 | 0.208
